Source: US20060089375A1, “Pyrazolo[3,4-b] pyridine compounds, and their use as phosphodiesterase inhibitors” (priority 2002, published 2006)

How the values were obtained:
[1] = biological target: T1, PDE4B (human recombinant) (Homo sapiens, UniProt Q07343); test: Inhibition of PDE4B activity: radioactive SPA or IMAP Fluorescence Polarisation (FP) assay; format: biochemical; settings: PDE4B inhibitory activity, one reading or average of ca. 2-6 readings, read-out: PDE4B pIC50 (± about 0.5) (converted)
T1 construct: made in house
Procedure, shortened: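 SPA: yeast-expressed human recombinant PDE4B was preincubated with compound for 10–30 min at ambient temperature in Tris pH 7.5 with MgCl2, EGTA and BSA, then run 1 h with ~10 nM [3H]cAMP at ≤20% hydrolysis; 10 concentrations (1.5 nM–30 μM) gave pIC50. IMAP FP: Tris pH 7.2 with ~40 nM fluorescein-cAMP, under linear enzyme conditions.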

[2] = system: LPS-induced pulmonary neutrophilia in rats; test: In Vivo Assay 1: LPS-induced pulmonary neutrophilia in rats, orally administered PDE4 inhibitors; settings: Rattus norvegicus, po, aerosolized LPS 30 min after dosing, BAL 4 hours post LPS, read-out: neutrophilia-inhibition ED50
Description: The purpose of this neutrophilia model is to study the potentially anti-inflammatory effects in vivo of orally administered PDE4 inhibitors on neutrophilia induced by inhalation of aerosolized lipopolysaccharide (LPS), modelling the neutrophil inflammatory component(s) of COPD. See the literature section below for scientific background.
Male Lewis rats (Charles River, Raleigh, N.C., USA) weighing approximately 300-400 grams are pretreated with either (a) test compound suspended in 0.5% methylcellulose (obtainable from Sigma-Aldrich, St Louis, Mo., USA) in water or (b) vehicle only, delivered orally in a dose volume of 10 ml/kg. Generally, dose response curves are generated using the following doses of PDE4 inhibitors: 10.0, 2.0, 0.4, 0.08 and 0.016 mg/kg. Thirty minutes following pretreatment, the rats are exposed to aerosolized LPS (Serotype E. Coli 026:B6 prepared by trichloroacetic acid extraction, obtainable from Sigma-Aldrich, St Louis, Mo., USA), generated from a nebulizer containing a 100 μg/ml LPS solution. Rats are exposed to the LPS aerosol at a rate of 4 L/min for 20 minutes. LPS exposure is carried out in a closed chamber with internal dimensions of 45 cm length×24 cm width×20 cm height. The nebulizer and exposure chamber are contained in a certified fume hood. At 4 hours-post LPS exposure the rats are euthanized by overdose with pentobarbital at 90 mg/kg, administered intraperitoneally. Bronchoalveolar lavage (BAL) is preformed through a 14 gauge blunt needle into the exposed trachea. Five, 5 ml washes are performed to collect a total of 25 ml of BAL fluid. […] Percent neutrophil inhibition at each dose (cf. vehicle) is calculated and a variable slope, sigmoidal dose-response curve is generated, usually using Prism Graph-Pad. […]
Alternative method and results: In an alternative embodiment of the procedure, single oral doses of 10 mg/kg or 1.0 mg/kg of the PDE4 inhibitor (or vehicle) is administered to the rats, and percent neutrophil inhibition is calculated and reported for that specific dose.

T1 sequence (Q07343 1-564 isoform Q07343-2): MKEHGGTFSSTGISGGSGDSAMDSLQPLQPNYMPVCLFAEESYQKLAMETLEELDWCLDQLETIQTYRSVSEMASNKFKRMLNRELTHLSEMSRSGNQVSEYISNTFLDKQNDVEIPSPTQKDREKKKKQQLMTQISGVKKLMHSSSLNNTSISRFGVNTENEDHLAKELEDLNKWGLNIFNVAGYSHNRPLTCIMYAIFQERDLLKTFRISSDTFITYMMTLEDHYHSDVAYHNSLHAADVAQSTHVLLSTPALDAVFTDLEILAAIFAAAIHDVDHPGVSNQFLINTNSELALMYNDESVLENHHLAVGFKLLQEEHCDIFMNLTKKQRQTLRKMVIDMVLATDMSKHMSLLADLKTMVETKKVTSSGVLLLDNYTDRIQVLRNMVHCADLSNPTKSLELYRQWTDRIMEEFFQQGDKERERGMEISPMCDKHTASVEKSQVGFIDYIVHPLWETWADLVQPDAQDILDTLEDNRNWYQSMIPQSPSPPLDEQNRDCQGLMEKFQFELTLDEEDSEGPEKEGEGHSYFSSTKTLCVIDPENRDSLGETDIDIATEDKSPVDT

**Q.** For `CCNC(=O)c1cnc2c(cnn2CC)c1NC1CCOCC1` [Example 83, 1-Ethyl-N-ethyl-4-(tetrahydro-2H-pyran-4-ylamino)-1H-pyrazolo[3,4-b]pyridine-5-carboxamide], which IC50 [1] is on record?
**A.** 12.6 to 100 nM

**Q.** What about the ED50 [2] of the same compound?
**A.** 0.5 to 2 mg/kg

**Q.** Which results are given for `CCn1ncc2c(NC3CCOCC3)c(C(=O)NCc3ccc(C(F)(F)F)cc3)cnc21` [Example 155, 1-Ethyl-4-(tetrahydro-2H-pyran-4-ylamino)-N-[4-(trifluoromethyl)benzyl]-1H-pyrazolo[3,4-b]pyridine-5-carboxamide]?
**A.** IC50 [1]: 0.1 to 6.31 nM; ED50 [2]: 0.5 to 2 mg/kg

**Q.** How did the IC50 [1] turn out when `CCn1ncc2c(NC3CCOCC3)c(C(=O)Nc3ccc(F)cc3)cnc21` [Example 22, 1-Ethyl-N-(4-fluorophenyl)-4-(tetrahydro-2H-pyran-4-ylamino)-1H-pryazolo[3,4-b]pyridine-5-carboxamide] was run?
**A.** 12.6 nM

**Q.** What about the ED50 [2] of the same compound?
**A.** 0.5 to 2 mg/kg
